# Data published in patent publication US11919918B2, “P2X3 andor P2X2/3 receptor antagonist, pharmaceutical composition comprising same, and use thereof” (BEIJING TIDE PHARMACEUTICAL CO., LTD., priority 2017, dated 2024).
# Tests used:
# human P2X3 receptor = human P2X3 receptor (Homo sapiens (Human), UniProt P56373); experiment: Inhibitory activity on human P2X3 receptor (calcium 6 dye FLIPR assay, agonist α,β-MeATP); format: cell-based; details: HEK293-P2X3 stably expressing cell line, FLIPR Tetra
# Sequence of human P2X3 receptor (P56373 whole entry): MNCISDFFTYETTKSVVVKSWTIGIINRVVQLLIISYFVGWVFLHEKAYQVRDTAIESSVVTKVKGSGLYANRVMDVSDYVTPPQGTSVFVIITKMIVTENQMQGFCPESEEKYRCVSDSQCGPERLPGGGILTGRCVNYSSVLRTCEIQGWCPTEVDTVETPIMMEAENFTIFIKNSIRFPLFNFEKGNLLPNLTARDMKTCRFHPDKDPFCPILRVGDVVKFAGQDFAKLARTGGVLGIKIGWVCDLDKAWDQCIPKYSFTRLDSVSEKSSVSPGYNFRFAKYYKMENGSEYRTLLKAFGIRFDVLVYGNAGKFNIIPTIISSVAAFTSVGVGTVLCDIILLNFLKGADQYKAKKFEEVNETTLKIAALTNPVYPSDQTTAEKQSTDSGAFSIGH
# Method: (§1) Biological Assay: Determination of the Inhibitory Activity of the Compounds on Human P2X3 and P2X2/3 Receptors
# (§2) Cells were seeded into a poly-D-lysine-coated 384-well cell culture plate (Corning) at a density of 11,000 cells/well/25 μL of cell inoculation medium, and were cultured in a cell incubator overnight. On the day of the test, the calcium 6 dye was diluted to a 2× concentration with a assay buffer, 25 μL of the 2× calcium 6 dye was added to the 384-well cell culture plate, which was incubated at 37° C. for 2 hours, and then placed at room temperature for further use. The test compound and the agonist, α,β-MeATP were diluted to a 7× concentration with the assay buffer, 10 μL of the 7× test compound was added to the 384-well cell culture plate, which was incubated at room temperature for 15 minutes, and 10 μL of the 7× α,β-MeATP was transferred into the 384-well cell culture plate. The data were measured and analyzed using FLIPR Tetra, and the half inhibitory concentration (IC50) of the test compound on P2X3 and P2X2/3 receptors was calculated with the GraphPad Prism four-parameter equation.
# (§3) Cell lines: human embryonic kidney cells HEK293-P2X3 and HEK293-P2X2/3 stably expressing cell lines;
# (§4) Complete cell culture medium: DMEM High Glucose (Life Technology), which contained 10% fetal bovine serum, 4 mM GlutaMAX, 1% penicillin-streptomycin, and 350 μg/mL G418;
# (§5) Cell inoculation medium: DMEM High Glucose (Life Technology), which contained 2% fetal bovine serum, and 4 mM GlutaMAX;
# (§6) Cell culture conditions: 37° C., 5% CO2;
# (§7) Assay buffer: HBSS (containing calcium and magnesium ions), which contained 20 mM HEPES;
# (§8) Detection equipment: FLIPR Tetra (Molecular Devices);
# human P2X2/3 receptor = human P2X2/3 receptor (Homo sapiens (Human), UniProt P56373+Q9UBL9); experiment: Inhibitory activity on human P2X2/3 receptor (calcium 6 dye FLIPR assay, agonist α,β-MeATP); format: cell-based; details: HEK293-P2X2/3 stably expressing cell line, FLIPR Tetra
# Sequence of human P2X2/3 receptor (Q9UBL9 whole entry): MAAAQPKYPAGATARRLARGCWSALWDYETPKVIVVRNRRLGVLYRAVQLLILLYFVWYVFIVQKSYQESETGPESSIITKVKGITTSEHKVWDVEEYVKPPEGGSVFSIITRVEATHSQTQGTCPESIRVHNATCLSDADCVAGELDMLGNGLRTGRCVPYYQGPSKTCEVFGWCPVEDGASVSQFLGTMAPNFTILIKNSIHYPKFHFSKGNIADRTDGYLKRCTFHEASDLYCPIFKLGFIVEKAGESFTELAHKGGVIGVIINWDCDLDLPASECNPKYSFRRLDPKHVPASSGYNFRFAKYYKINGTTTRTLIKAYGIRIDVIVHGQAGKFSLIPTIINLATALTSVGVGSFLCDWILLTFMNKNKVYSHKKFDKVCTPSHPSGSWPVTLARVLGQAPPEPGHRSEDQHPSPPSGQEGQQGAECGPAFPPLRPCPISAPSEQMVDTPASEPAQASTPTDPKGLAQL
# Sequence of human P2X2/3 receptor (P56373 whole entry): as the sequence (P56373 whole entry) above
# Method: as §1, §2, §3, §4, §5, §6, §7, §8
Structure (SMILES),IC50 (human P2X3 receptor),IC50 (human P2X2/3 receptor)
CC(C)c1c[n+]([O-])c(Br)cc1Oc1cnc(N)nc1N [C1],746 nM,
CC(C)c1cnc(Cl)cc1Sc1cnc(N)nc1N [C84],536 nM,742 nM
C=C(C)c1cnc(NC)cc1Oc1cnc(N)nc1N [C192],53 nM,69 nM
CNc1ncc(Oc2cc(Br)ncc2C(C)C)c(NC)n1 [C227],948 nM,
"CC(C)c1cnc(Cl)cc1Oc1cnc(N)nc1N [Compound C3, 5-((2-chloro-5-isopropylpyridin-4-yl)oxy)pyrimidine-2,4-diamine]",205 nM,341 nM
"COc1cc(Oc2cnc(N)nc2N)c(C(C)C)cn1 [Compound C4, 5-((5-isopropyl-2-methoxypyridin-4-yl)oxy)pyrimidine-2,4-diamine]",102 nM,158 nM
"CC(C)c1cnc(S(N)(=O)=O)cc1Oc1cnc(N)nc1N [Compound C6, 4-((2,4-diaminopyrimidin-5-yl)oxy)-5-isopropylpyridine-2-sulfonamide]",348 nM,
"CC(C)c1cnc(I)cc1Oc1cnc(N)nc1N [Compound C12, 5-((2-iodo-5-isopropylpyridin-4-yl)oxy)pyrimidine-2,4-diamine]",73.6 nM,56.7 nM
CC(C)c1cnc(-c2ccccc2)cc1Oc1cnc(N)nc1N [Compound C13],355 nM,599 nM
"CCc1cc(Oc2cnc(N)nc2N)c(C(C)C)cn1 [Compound C15, 5-((2-ethyl-5-isopropylpyridin-4-yl)oxy)pyrimidine-2,4-diamine]",307 nM,793 nM
"CC(C)c1cc(Oc2cnc(N)nc2N)c(C(C)C)cn1 [Compound C16, 5-((2,5-diisopropylpyridin-4-yl)oxy)pyrimidine-2,4-diamine]",802 nM,
"CSc1cc(Oc2cnc(N)nc2N)c(C(C)C)cn1 [Compound C20, 5-((5-isopropyl-2-(methylthio)pyridin-4-yl)oxy)pyrimidine-2,4-diamine]",44.4 nM,75.7 nM
"CC(C)c1cnc(N)cc1Oc1cnc(N)nc1N [Compound C21, 5-((2-amino-5-isopropylpyridin-4-yl)oxy)pyrimidine-2,4-diamine]",131 nM,200 nM
"CNc1cc(Oc2cnc(N)nc2N)c(C(C)C)cn1 [Compound C22, 5-((5-isopropyl-2-(methylamino)pyridin-4-yl)oxy)pyrimidine-2,4-diamine]",37 nM,57 nM
"CC(C)c1cnc(N(C)C)cc1Oc1cnc(N)nc1N [Compound C23, 5-((2-(dimethylamino)-5-isopropylpyridin-4-yl)oxy)pyrimidine-2,4-diamine]",365 nM,644 nM
"COc1cc(Oc2cnc(N)nc2N)c(C2CC2)cn1 [Compound C33, 5-((5-cyclopropyl-2-methoxypyridin-4-yl)oxy) pyrimidine-2,4-diamine]",238 nM,262 nM
"CC(C)c1cnc(-c2cn[nH]c2)cc1Oc1cnc(N)nc1N [Compound C35, 5-((5-isopropyl-2-(1H-pyrazol-4-yl)pyridin-4-yl)oxy)pyrimidine-2,4-diamine]",1170 nM,
"CC(C)c1cnc(-n2cccc2)cc1Oc1cnc(N)nc1N [Compound C38, 5-((5-isopropyl-2-(1H-pyrrol-1-yl)pyridin-4-yl)oxy)pyrimidine-2,4-diamine]",787 nM,
"CC(C)c1cnc(-c2ccco2)cc1Oc1cnc(N)nc1N [Compound C39, 5-((2-(furan-2-yl)-5-isopropylpyridin-4-yl)oxy)pyrimidine-2,4-diamine]",166 nM,243 nM

Structure (SMILES),IC50 (human P2X3 receptor),IC50 (human P2X2/3 receptor)
C=Cc1cc(Oc2cnc(N)nc2N)c(C(C)C)cn1 [Compound C43],55 nM,180 nM
C=C(C)c1cc(Oc2cnc(N)nc2N)c(C(C)C)cn1 [Compound C44],116 nM,423 nM
"C=C(OCC)c1cc(Oc2cnc(N)nc2N)c(C(C)C)cn1 [Compound C45, 5-((2-(1-ethoxyvinyl)-5-isopropylpyridin-4-yl)oxy)pyrimidine-2,4-diamine]",435 nM,
"CC(C)c1cnc(C2CC2)cc1Oc1cnc(N)nc1N [Compound C52, 5-((2-cyclopropyl-5-isopropylpyridin-4-yl)oxy)pyrimidine-2,4-diamine]",147 nM,589 nM
"CCN(C)c1cc(Oc2cnc(N)nc2N)c(C(C)C)cn1 [Compound C61, 5-((2-(ethyl(methyl)amino)-5-isopropylpyridin-4-yl)oxy)pyrimidine-2,4-diamine]",274 nM,592 nM
"CC(C)c1cnc(N(C)C2CC2)cc1Oc1cnc(N)nc1N [Compound C65, 5-((2-(cyclopropyl (methyl)amino)-5-isopropylpyridin-4-yl)oxy) pyrimidine-2,4-diamine]",334 nM,506 nM
"C#Cc1cc(Oc2cnc(N)nc2N)c(C(C)C)cn1 [Compound C66, 5-((2-ethynyl-5-isopropylpyridin-4-yl)oxy)pyrimidine-2,4-diamine]",85 nM,154 nM
"CC(C)c1cnc(C(F)(F)F)cc1Oc1cnc(N)nc1N [Compound C67, 5-((5-isopropyl-2-(trifluoromethyl)pyridin-4-yl)oxy)pyrimidine-2,4-diamine]",490 nM,
"CC(C)c1cnc(Br)cc1Oc1cnc(N)nc1NCCN(C)C [Compound C71, 5-((2-bromo-5-isopropylpyridin-4-yl)oxy)-N^4-(2-(dimethylamino)ethyl)pyrimidine-2,4-diamine]",72 nM,67 nM
"CC(C)Nc1cc(Oc2cnc(N)nc2N)c(C(C)C)cn1 [Compound C120, 5-((5-isopropyl-2-(isopropylamino)pyridin-4-yl)oxy)pyrimidine-2,4-diamine]",492 nM,
"COc1cc(Oc2cnc(N)nc2N)c(Br)cn1 [Compound C124, 5-((5-bromo-2-methoxypyridin-4-yl)oxy)pyrimidine-2,4-diamine]",1240 nM,
"CCSc1cc(Sc2cnc(N)nc2N)c(C(C)C)cn1 [Compound C125, 5-((2-(ethylthio)-5-isopropyl-pyridin-4-yl)thio) pyrimidine-2,4-diamine]",731 nM,
"CC(C)c1cnc(C(N)=O)cc1Oc1cnc(N)nc1N [Compound C129, 4-((2,4-diamino-pyrimidin-5-yl)oxy)-5-isopropyl-picolinamide]",377 nM,
"CC(C)c1cnc(/C=C/c2ccccc2)cc1Oc1cnc(N)nc1N [Compound C138, (E)-5-((5-isopropyl-2-styrylpyridin-4-yl)oxy) pyrimidine-2,4-diamine]",635 nM,
CC(C)c1cnc(CC(=O)c2ccc(N(C)C)cc2)cc1Oc1cnc(N)nc1N [Compound C155],926 nM,
"CC(C)c1cnc(Br)cc1Oc1cnc(N)nc1N[C@H](C)C1CC1 [Compound C182, (R)-5-((2-bromo-5-isopropylpyridin-4-yl)oxy)-N^4-(1-cyclopro-pylethyl) pyrimidine-2,4-diamine]",670 nM,
"CC(C)c1cnc(C#Cc2cnc3cccnn23)cc1Oc1cnc(N)nc1N [Compound C195, 5-((2-(imidazo[1,2-b]pyridazin-3-ylethynyl)-5-isopropylpyridin-4-yl)oxy)pyrimidine-2,4-diamine]",316 nM,
"CC(C)c1cnc(NCCO)cc1Oc1cnc(NCCO)nc1N [Compound C242, 2-((4-((4-amino-2-((2-hydroxyethyl)amino)pyrimidin-5-yl)oxy)-5-isopropyl-pyridin-2-yl)amino)ethanol]",744 nM,
